# Experimental data as given in ChEMBL document CHEMBL3108765, “2-Aminonicotinic acid 1-oxides are chemically stable inhibitors of quinolinic acid synthesis in the mammalian brain: a step toward new antiexcitotoxic agents” (J Med Chem, 2013).
# Columns and labels:
# [1] = target: T1, 3-hydroxyanthranilate 3,4-dioxygenase (Homo sapiens) (UniProt P46952); assay: Inhibition of 3-HAO in human brain homogenates using [1-14C]-3-HANA as substrate assessed as [14C]-QUIN production at 100 uM after 1 hr by liquid scintillation spectrometric analysis relative to control; type: tissue-based
# T1 sequence (whole entry): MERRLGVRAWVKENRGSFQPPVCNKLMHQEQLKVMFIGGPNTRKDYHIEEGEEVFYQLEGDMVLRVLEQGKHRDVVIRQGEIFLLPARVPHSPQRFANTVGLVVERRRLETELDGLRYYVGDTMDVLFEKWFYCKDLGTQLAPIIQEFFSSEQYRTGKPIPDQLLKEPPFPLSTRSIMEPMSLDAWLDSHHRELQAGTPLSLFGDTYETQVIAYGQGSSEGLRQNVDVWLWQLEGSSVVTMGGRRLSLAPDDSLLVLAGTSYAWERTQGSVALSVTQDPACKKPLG
# [2] = target: T1, 3-hydroxyanthranilate 3,4-dioxygenase (Homo sapiens); assay: Inhibition of 3-HAO in human brain homogenates using [1-14C]-3-HANA as substrate assessed as [14C]-QUIN production at 1 mM after 1 hr by liquid scintillation spectrometric analysis relative to control; type: tissue-based
# [3] = target: T2, 3-hydroxyanthranilate 3,4-dioxygenase (Rattus norvegicus) (UniProt P46953); assay: Inhibition of 3-HAO in Sprague-Dawley rat brain homogenates using [1-14C]-3-HANA as substrate assessed as [14C]-QUIN production at 1 mM after 1 hr by liquid scintillation spectrometric analysis relative to control; type: tissue-based
# T2 sequence (whole entry): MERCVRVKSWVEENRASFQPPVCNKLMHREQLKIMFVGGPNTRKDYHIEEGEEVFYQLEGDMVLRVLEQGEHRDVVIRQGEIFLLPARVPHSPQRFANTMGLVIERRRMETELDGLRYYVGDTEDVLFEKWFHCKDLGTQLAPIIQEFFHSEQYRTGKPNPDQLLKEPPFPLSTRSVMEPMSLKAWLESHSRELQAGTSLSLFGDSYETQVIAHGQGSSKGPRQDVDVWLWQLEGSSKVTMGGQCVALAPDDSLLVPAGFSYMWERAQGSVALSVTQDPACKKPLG
# [4] = target: T2, 3-hydroxyanthranilate 3,4-dioxygenase (Rattus norvegicus); assay: Inhibition of 3-HAO in Sprague-Dawley rat brain homogenates using [1-14C]-3-HANA as substrate assessed as [14C]-QUIN production at 10 uM after 1 hr by liquid scintillation spectrometric analysis relative to control; type: tissue-based
# [5] = target: T2, 3-hydroxyanthranilate 3,4-dioxygenase (Rattus norvegicus); assay: Inhibition of 3-HAO in Sprague-Dawley rat brain homogenates using [1-14C]-3-HANA as substrate assessed as [14C]-QUIN production at 100 uM after 1 hr by liquid scintillation spectrometric analysis relative to control; type: tissue-based
# [6] = target: T1, 3-hydroxyanthranilate 3,4-dioxygenase (Homo sapiens); assay: Inhibition of 3-HAO in human brain homogenates using [1-14C]-3-HANA as substrate assessed as [14C]-QUIN production at 10 uM after 1 hr by liquid scintillation spectrometric analysis relative to control; type: tissue-based
# [7] = Chemical stability in PBS buffer assessed as auto-oxidative degradation after 24 hrs by HPLC analysis; type: physicochemical; conditions: read-out: Drug degradation
# [8] = Drug degradation in PBS buffer assessed as parent compound level at 100 uM after 24 hrs by HPLC/UV-vis spectroscopic analysis; type: physicochemical; conditions: read-out: Stability
# [9] = Drug degradation in PBS buffer assessed as parent compound level at 10 uM after 24 hrs by HPLC/UV-vis spectroscopic analysis; type: physicochemical; conditions: read-out: Stability
# [10] = target: T3, 3-hydroxyanthranilate 3,4-dioxygenase (Rattus norvegicus, UniProt P46953); assay: Inhibition of 3-HAO in Sprague-Dawley rat brain homogenates using [1-14C]-3-HANA as substrate assessed as [14C]-QUIN production after 1 hr by liquid scintillation spectrometric analysis; type: tissue-based
# T3 sequence (P46953 whole entry): T2 sequence (whole entry)
# [11] = system: Rattus norvegicus; assay: In vivo inhibition of 3-HAO in excitotoxically lesioned Sprague-Dawley rat striatum assessed as de novo formation of [3H]-QUIN administered as intrastriatally measured after 2 hrs (reference value: 3.4 +/- 0.5%); type: functional
# [12] = target: T4, 3-hydroxyanthranilate 3,4-dioxygenase (Homo sapiens, UniProt P46952); assay: Inhibition of 3-HAO in human brain homogenates using [1-14C]-3-HANA as substrate assessed as [14C]-QUIN production after 1 hr by liquid scintillation spectrometric analysis; type: tissue-based
# T4 sequence (P46952 whole entry): T1 sequence (whole entry)
Compound,inhibition [1] [%],inhibition [2] [%],inhibition [3] [%],inhibition [4] [%],inhibition [5] [%],inhibition [6] [%],degraded at 24 h [7] [%],"remaining at 24 h, 100 µM [8] [%]","remaining at 24 h, 10 µM [9] [%]",IC50 [10] [nM],IC50 [12] [nM],[3H]-QUIN formed [11] [%]
Cc1ccc(C(=O)O)c(N)n1,0.7,24.8,42.5,-2.1,5.1,-3.6,,,,,,
O=C(O)c1ccc(Cl)[n+]([O-])c1,-3,30.4,37,2.9,11.4,-5.4,,,,,,
Nc1c(C(=O)O)ccc(Cl)c1O,,,,,,,62,,,,,
Cc1ccc(C#N)c(N)[n+]1[O-],-0.5,5.6,2.4,-2.4,-0.6,-2.9,,,,,,
Nc1c(C(=O)O)cc(Br)c[n+]1[O-],67.2,89.1,83.7,14.5,55.2,22.9,,,,,,
O=c1[nH]cnc2c1ccc[n+]2[O-],13,44.3,46.9,0.6,6.4,5.5,,,,,,
Nc1c(C(=O)O)ccc[n+]1[O-],88.8,94,92.4,47.6,84.9,74,,103,101,,,
Cc1cc(-c2ccccc2)c(C(=O)O)c(N)[n+]1[O-],4.1,7.4,14.8,2.4,5.5,-2.8,,,,,,
COC(=O)c1ccc(C)[n+]([O-])c1N,-5.8,6,9.3,1,1.2,-7.9,,,,,,
CC(C)c1cc(C(C)C)[n+]([O-])c(N)c1C(=O)O,1.5,10.6,14.6,1.2,2.9,-5.4,,,,,,
Nc1c(C(=O)O)cc(Cl)c[n+]1[O-],68.6,85.9,74.4,9.1,42.6,24.8,,,,,,
Cc1ccc(C(N)=O)c(N)[n+]1[O-],1.3,20.1,11.5,-1.1,-2,1.7,,,,,,
Cc1cc(C(C)C)c(C(=O)O)c(N)[n+]1[O-],10.2,24.1,25.7,1.1,2.2,4,,,,,,

# Second part, led by results:
inhibition [1] [%],inhibition [2] [%],inhibition [3] [%],inhibition [4] [%],inhibition [5] [%],inhibition [6] [%],degraded at 24 h [7] [%],"remaining at 24 h, 100 µM [8] [%]","remaining at 24 h, 10 µM [9] [%]",IC50 [10] [nM],IC50 [12] [nM],Compound,[3H]-QUIN formed [11] [%]
52.6,80.1,67.6,8.7,30.7,16.3,,,,,,Cc1cc(C(=O)O)c(N)[n+]([O-])c1,
10.9,20,23,2.8,3.1,8.5,,,,,,CCc1cc(C)[n+]([O-])c(N)c1C(=O)O,
88.4,90.4,94.2,69.9,90.7,76.6,,,,,,CCc1ccc(C(=O)O)c(N)[n+]1[O-],
76.3,89.1,85.8,17.6,61.6,31.3,,,,,,Cc1cc(C(=O)O)c(N)[n+]([O-])c1C,
92.3,94.4,96,76.9,94.1,85.5,,102,101,2800,1100,Cc1ccc(C(=O)O)c(N)[n+]1[O-],0.9
16.3,69.5,46.6,-0.8,4.3,0.7,,,,,,Cc1cc(C)[n+]([O-])c(N)c1C(=O)O,
89.6,95.2,95.2,67.3,84,72.9,,,,,,Nc1c(C(=O)O)ccc(Cl)[n+]1[O-],
